These results are taken from patent US20030190650A1 (priority 2000, published 2003).

In the assay the test system is primary human neutrophils. Briefly: Gliotoxin block of GM-CSF inhibition of neutrophil apoptosis (MTT). In kind it is cell-based. The following applies: 0.1 μg/ml with 5 U/ml GM-CSF. The procedure: Primary human neutrophils are isolated and purified from peripheral blood of normal healthy individuals. Neutrophils are resuspended in serum containing culture medium containing 5 U/ml of GM-CSF at a concentration of 2×10^6/ml. […] After the indicated time, 10 μl of MTT (5 mg/ml) are added to the cultures and incubated for a further 4 h at 37° C. before solubilisation of the purple coloured formazan with acidic isopropanol. Optical densities are read at 570 nm using a plate reader.

Regarding `CS[C@]1(CO)C(=O)N2[C@H]3C(=CC=C[C@@H]3O)C[C@@]2(SC)C(=O)N1C` [methylgliotoxin, bis-Dethio-bis (Methylthio) Gliotoxin], the “effect on GM-CSF inhibition of neutrophil apoptosis” value was “blocking effect is not seen”.
